Assay in all cases: NCI anticancer screen, dose series, 48 h
Assay [1] relates to IGROV1 ovarian.
Assay [2] relates to SR leukemia.
Assay [3] has as its system MDA-MB-435.
Assay [4] deals with HOP-92 NSCLC.
Assay [5] concerns RXF 393 renal.
Assay [6] concerns NCI-H23 lung.
For assay [7], the system named is M14 melanoma.
The subject of assay [8] is UACC-62 melanoma.
The subject of assay [9] is HOP-62 NSCLC.
Assay [10] concerns COLO 205 colon.

The structures appear in SMILES notation.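 Growth conditions: 96-well plates. Treatment: test compound, 48 hours, 5 concentrations. Analysis: linear interpolation between bracketing concentrations; unreached endpoints set to highest concentration. At the TGI there is no net growth.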

Consider `COc1cc2c(cc1C)NC(=O)/C2=C/c1c(Cl)[nH]c2ccccc12`, for which the TGI in assay [1] stood at 16.8 µM; in assay [2], 23.1 µM; in assay [3], 4.13 µM; in assay [4], 25 µM; in [5] it was 24.7 µM; in assay [6], 23.7 µM. The TGI in assay [7] was 13.3 µM; in assay [8], 14.4 µM; in [9], 14.6 µM; in assay [10], 13.1 µM.

As for `NS(=O)(=O)c1ccc(Nc2c3ccccc3nc3c(C(=O)NC(CO)(CO)CO)cccc23)cc1`, the TGI is 0.506 µM in assay [1]; greater than 1 µM in assay [2]; 0.558 µM in [3]; 0.389 µM in assay [4]; 0.386 µM in [5]; 0.318 µM in assay [6]. In addition, the TGI in assay [7] was 0.39 µM; in [8], 0.318 µM; in assay [9] it was 0.433 µM; in assay [10], 0.175 µM.

On to `C(/C=C(\Nc1ccccc1)c1ccc2ccccc2c1)=Nc1ccccc1`, for which the TGI in assay [1] stood at 13.7 µM; in [2], 2.49 µM; in assay [3], 1.27 µM; in [4], 28.1 µM; in assay [5], 7.41 µM; in assay [6], 6.63 µM. Besides, the TGI turned out to be 6.14 µM in assay [7], 3.37 µM in [8], 7.05 µM in assay [9] and 4.1 µM in [10].

With `CC(C)C1OC(=O)C(Cc2ccccc2)N(C)C(=O)C(C(C)C)OC(=O)C(Cc2ccccc2)N(C)C(=O)C(C(C)C)OC(=O)C(Cc2ccccc2)N(C)C1=O` (stereo not given), the TGI in [1] came out at 2.43 µM; in assay [2], 4.06 µM; in assay [3], 1.41 µM; in assay [4] it was 1.3 µM; in assay [5], 2.33 µM; in assay [6], 2.62 µM. The TGI in [7] is 2.03 µM; in assay [8] it was 1.98 µM; in assay [9], 2.19 µM; in [10] it was 1.95 µM.

Take `C=CCSC1=N/C(=C\c2ccc(C)cc2)C(=O)N1CC=C`: the TGI in assay [1] was greater than 100 µM; in [2], 29.4 µM; in assay [3], 98.8 µM; in assay [4] it was 57.5 µM; in assay [5] it was 43.2 µM; in [6], greater than 100 µM. For the same compound, the TGI in assay [7] is greater than 100 µM; in assay [8] it was greater than 100 µM; in [9], greater than 100 µM; in assay [10], 42 µM.

Regarding `C#C[C@]1(O)CC[C@H]2[C@@H]3CCC4=C/C(=N/OC(=O)c5cccc6cc7ccccc7nc56)CC[C@@H]4[C@H]3CC[C@@]21CC`, the TGI in [1], in assay [2], in assay [3], in assay [4], in assay [5] and in assay [6] was greater than 100 µM in each case. The TGI in [7], in assay [8], in assay [9] and in [10] was greater than 100 µM in each case.

Take `O=C(NCC(O)COc1ccccc1)c1ccccc1O` (stereo not given): the TGI in assay [1], in assay [2], in assay [3], in [4], in [5] and in assay [6] was greater than 100 µM in each case. In addition, the TGI in assay [7], in assay [8], in assay [9] and in assay [10] was greater than 100 µM each time.

On to `O=C(OC1C#CCSCC#C/C=C\1)c1ccc2c(c1)C(=O)c1ccccc1C2=O` (stereo not given), for which the TGI in [1] was greater than 100 µM; in assay [2], greater than 100 µM; in assay [3], greater than 100 µM; in assay [4] it was 13.7 µM; in assay [5] it was 47.1 µM; in assay [6], greater than 100 µM. Also, the TGI in assay [7] was greater than 100 µM; in [8] it was 34.2 µM; in assay [9] it was 42.8 µM; in assay [10], greater than 100 µM.

On to `C=CCN(C(C)=O)c1cc(OCc2ccccc2)c2c(c1)c(C)cn2S(=O)(=O)c1ccccc1`, for which the TGI in [1] is greater than 100 µM; in assay [2], 4.21 µM; in assay [3] it was greater than 46.3 µM; in assay [4], greater than 100 µM; in [5], greater than 100 µM; in assay [6], greater than 100 µM. In addition, the TGI in assay [7] was greater than 100 µM; in assay [8], greater than 76.9 µM; in [9], greater than 100 µM; in [10] it was 12.6 µM.

With `CCCCCCCC(=O)NC(C)(C)C(=O)NCC(=O)NC(CC(C)C)C(=O)NC(C)(C)C(=O)NCC(=O)NCC(=O)NC(CC(C)C)C(=O)NC(C)(C)C(=O)NCC(=O)NC(C(=O)NC(CO)CC(C)C)C(C)CC` (stereo not given), the TGI turned out to be 7.17 µM in assay [1]; 8.63 µM in assay [2]; 8.24 µM in [3]; 6.36 µM in assay [4]; 7.97 µM in assay [5]; 7.49 µM in assay [6]. Besides, the TGI in assay [7] worked out at 7.62 µM; in assay [8] it was 7.54 µM; in assay [9] it was 8.12 µM; in assay [10] it was 7.18 µM.

As to `Cc1cccc(NC(=S)NNC(=O)c2cc(-c3ccccc3)nc3ccccc23)c1`, the TGI is greater than 100 µM in [1]; 41.1 µM in assay [2]; 85.7 µM in assay [3]; 68.5 µM in assay [4]; 68.3 µM in assay [5]; 84.8 µM in assay [6]. Further, the TGI in [7] is greater than 100 µM; in assay [8], 99.7 µM; in [9], 99.3 µM; in assay [10], 40.1 µM.

With `COC(=O)c1sc2c(c1C(=O)OC)C(=Nc1ccc(OC)cc1)SC2=Nc1ccc(OC)cc1`, the TGI in assay [1] is 2.24 µM; in assay [2], greater than 100 µM; in [3] it was 1.94 µM; in [4], 2.91 µM; in assay [5], 1.72 µM; in [6], 3.12 µM. Further, the TGI worked out at 3 µM in assay [7], 2.84 µM in [8], 2.23 µM in [9] and 1.31 µM in [10].

Regarding `COc1cccc(C2c3cc4c(cc3OC(NNS(=O)(=O)c3ccc(C)cc3)C2C)OCO4)c1O` (stereo not given), the TGI was greater than 100 µM in [1]; 26.2 µM in assay [2]; 92.4 µM in [3]; 76.3 µM in assay [4]; 70.9 µM in [5]; greater than 100 µM in assay [6]. Also, the TGI was greater than 100 µM in [7], 79.7 µM in assay [8], 53 µM in [9] and 34.2 µM in [10].

For the compound `CCOc1c2c(cc3c1C(=O)c1c(OC)cccc1C3=O)C=C(OC)CC2`, the TGI in [1] is greater than 25 µM; in [2] it was 22.9 µM; in assay [3], greater than 25 µM; in [4], greater than 25 µM; in [5], greater than 25 µM; in assay [6] it was greater than 25 µM. For the same compound, the TGI in [7], in assay [8], in assay [9] and in [10] was greater than 25 µM each time.

`Clc1ccc(Cc2nc3cc4ccccc4cc3[nH]2)cc1Cl`: the TGI was 16.7 µM in [1]; 30.8 µM in assay [2]; 49.3 µM in [3]; 30.6 µM in [4]; 40.2 µM in assay [5]; 71.6 µM in [6]. For the same compound, the TGI in [7] is 75.3 µM; in [8] it was 34.2 µM; in [9] it was 82.9 µM; in assay [10] it was greater than 100 µM.

As to `COc1ccc(/C=N/n2c(-c3ccccc3)n[nH]c2=O)c(OC)c1`, the TGI in [1] is greater than 100 µM; in assay [2], greater than 100 µM; in assay [3], greater than 100 µM; in [4], greater than 100 µM; in assay [5] it was greater than 93.4 µM; in assay [6] it was greater than 100 µM. For the same compound, the TGI was greater than 100 µM in assay [7], greater than 100 µM in [8], greater than 68.3 µM in [9] and greater than 100 µM in assay [10].

These data come from PubChem BioAssay (NCI).
